Laboratory results as given in patent US8097404B2, “Composition and method for cell permeabilization comprising N-octyl-β-D-glucopyranoside, sodium polyphosphates, rubidium chloride and/or lithium chloride for detecting living cells on a membrane” (Millipore Corporation, priority 2008, dated 2012).

Tested on: S. aureus (Gram-positive bacterium) ATCC 6538
Test: Fluorescence detection of microcolonies on membrane after permeabilization and 5/6-CFDA labeling
Assay type: cell-based
Conditions: agent used alone
Protocol: The tested strains of E. coli (Gram-negative bacterium) ATCC 8739 and of S. aureus (Gram-positive bacterium) ATCC 6538 or B. subtilis (Gram-positive bacterium) ATCC 6633 were preserved in cryotubes (Dutscher, ref. 028049) frozen at −80° C. prepared from freeze-dried strains obtained from collections.
For all the tests, the bacteria strains are diluted in tubes of peptone water (Biomérieux, ref. 42111). A cascade dilution is performed by adding 1 ml of the cryotube of the strain used to 9 ml of the tube of peptone water until the desired dilution is obtained. The concentration was adjusted in order to obtain on average 30 bacteria per sample. This concentration was verified on a Petri dish by a conventional count test on agar medium. […]
A universal fluorogenic marker, namely 5/6-carboxyfluorescein diacetate (CFDA) (Sigma 21879-100MG) diluted in DMSO, is added to the permeabilization compositions in order to reach a final concentration of 100 μg/ml. […] The membrane is then removed from the labeling solution and placed in an illuminator equipped with a camera in order to measure the fluorescence emitted between 520 and 530 nm.
The fluorescence intensity results summarized in Tables 1 to 3 below correspond to the light energy (luminescence) captured and recorded to the nearest pixel by the CCD camera using the Sherlock image analyzing software (Insosys Inc.). […]

CCCCCCCCO[C@@H]1O[C@H](CO)[C@@H](O)[C@H](O)[C@H]1O [N-Octyl-β-D-glucopyranoside]
Permeabilization of Gram-positive bacteria, in words: unsuitable
